Patent publication US20120178742A1, “METABOTROPIC GLUTAMATE RECEPTOR MODULATORS” (MERZ PHARMA GmbH & CO. KGaA, priority 2009, published 2012)

biological target: T1, human metabotropic glutamate receptor mGluR5 (Homo sapiens, UniProt P41594); experiment: Cytosolic calcium studies with stably transfected cells (CHO-K1); type: cell-based
T1 construct: expressed in transfected cells; host or cells: CHO-K1
Experimental: Functional Assay of mGluR5 Receptors Cytosolic Calcium Studies with Stably Transfected Cells
Chinese hamster ovary cells (CHO-K1 cells), stably transfected for inducible expression of a human metabotropic glutamate receptor mGluR5, are seeded into black clear bottom 96 well plates at a density of 35.000 cells per well. The standard growth medium used (Dulbecco's modified Eagle Medium, DMEM plus L-proline) contains the appropriate inducer isopropyl-β-D-thiogalactopyranosid (IPTG) to achieve optimal receptor expression. One day after seeding the growth medium is exchanged for reconstituted Ca-Kit (Molecular Devices, USA) and incubated for one hour. Ca-Kit is reconstituted in an assay buffer containing 20 mM HEPES pH 7.4, glutamic-pyruvate transaminase, pyridoxal phosphate and sodium pyruvate in Hank's balanced salt solution (HBBS). Agonistic compounds to the receptor elicit increases in cytosolic calcium which can be measured as increases in fluorescence signals by use of a fluorescence imaging plate reader (Molecular Devices). […] Similarly, for the characterization of positive allosteric modulators, a dilution series of the test compound is added online to 384 well plates containing the described dye loaded cells and after a preincubation time of 5 minutes stimulated by a basal cell concentration of the agonist L-glutamate giving about 20% of the maximal signal.
(§1) The fluorescence signal increase after addition of agonist reflects the increase of cytosolic calcium. Inconsistencies in the amount of cells per well are normalised by using the spatial uniformity correction of the FLIPR operating software Screenworks. The mean of replicated temporal data (n=3-5) is calculated and used for graphical representation. For the evaluation of the pharmacology, the calcium changes in response to different concentrations of agonist or antagonist are determined using a maximum minus minimum (MaxMin) calculation.
(§2) All responses (RFU-values) are determined as percentage of control (=maximum response). EC50 and IC50 are calculated according the logistic equation using Prism 4.0 (GraphPad Software, USA).

T1 sequence (P41594 21-1212): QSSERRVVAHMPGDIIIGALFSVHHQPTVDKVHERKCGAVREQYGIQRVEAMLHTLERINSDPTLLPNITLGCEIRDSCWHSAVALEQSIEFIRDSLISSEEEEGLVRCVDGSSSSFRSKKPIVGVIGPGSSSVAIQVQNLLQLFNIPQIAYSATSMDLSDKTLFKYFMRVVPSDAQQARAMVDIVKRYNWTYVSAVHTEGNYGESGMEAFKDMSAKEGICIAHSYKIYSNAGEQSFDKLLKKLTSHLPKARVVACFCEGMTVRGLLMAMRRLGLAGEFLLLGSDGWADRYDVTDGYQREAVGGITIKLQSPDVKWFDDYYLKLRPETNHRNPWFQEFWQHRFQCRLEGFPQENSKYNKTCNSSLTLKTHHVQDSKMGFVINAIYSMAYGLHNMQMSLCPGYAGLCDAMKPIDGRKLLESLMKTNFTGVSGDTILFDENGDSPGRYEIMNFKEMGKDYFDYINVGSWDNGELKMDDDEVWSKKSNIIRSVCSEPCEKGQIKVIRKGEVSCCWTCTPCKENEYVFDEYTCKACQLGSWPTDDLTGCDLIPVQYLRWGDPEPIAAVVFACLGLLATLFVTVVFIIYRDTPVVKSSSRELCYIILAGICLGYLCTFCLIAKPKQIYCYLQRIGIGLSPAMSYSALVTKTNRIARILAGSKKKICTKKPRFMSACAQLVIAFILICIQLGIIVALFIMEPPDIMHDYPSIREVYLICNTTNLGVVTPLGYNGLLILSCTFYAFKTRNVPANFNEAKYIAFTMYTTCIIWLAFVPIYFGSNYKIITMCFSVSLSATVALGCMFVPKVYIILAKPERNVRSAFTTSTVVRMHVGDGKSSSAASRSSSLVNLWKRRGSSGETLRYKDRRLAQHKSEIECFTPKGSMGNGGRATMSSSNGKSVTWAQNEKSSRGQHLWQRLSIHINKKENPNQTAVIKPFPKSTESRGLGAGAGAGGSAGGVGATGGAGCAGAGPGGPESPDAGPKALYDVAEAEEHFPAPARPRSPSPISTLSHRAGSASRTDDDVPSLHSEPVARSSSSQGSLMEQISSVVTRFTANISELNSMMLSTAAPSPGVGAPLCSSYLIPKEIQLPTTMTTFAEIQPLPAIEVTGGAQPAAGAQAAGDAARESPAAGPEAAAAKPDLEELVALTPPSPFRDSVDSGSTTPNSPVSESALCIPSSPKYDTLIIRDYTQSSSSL

First: Fc1ccccc1C#Cc1cnc2ncsc2c1 [Example 45, 6-(2-Fluoro-phenylethynyl)-thiazolo[4,5-b]pyridine]
Second: C(#Cc1cnc2ncsc2c1)c1ccccc1 [Example 38, 6-Phenylethynyl-thiazolo[4,5-b]pyridine]
The EC50 of the first is 6.5-fold higher: 65 nM for the first, 10 nM for the second. The second is the more potent here.

Compared with `C(#Cc1cnc2ncnn2c1)c1ccccc1` [Example 33, 6-Phenylethynyl-[1,2,4]triazolo[1,5-a]pyrimidine], `Fc1ccccc1C#Cc1cnc2ncnn2c1` [Example 48, 6-(2-Fluoro-phenylethynyl)-[1,2,4]triazolo[1,5-a]pyrimidine] is 7.7-fold higher in EC50: 130 nM for the first, 1000 nM for the second. The first is the more potent here.

Compared with `C(#Cc1cnc2ccnn2c1)c1ccccc1` [Example 1, 6-Phenylethynyl-pyrazolo[1,5-a]pyrimidine], `C(#Cc1cnc2ccnn2c1)Cc1ccccc1` [Example 14, 6-(3-Phenyl-prop-1-ynyl)-pyrazolo[1,5-a]pyrimidine] is 3.2-fold higher in EC50: 38 nM for the first, 120 nM for the second. The first is the more potent here.

Going from `O=C(c1nc2ncc(C#Cc3ccccc3)cn2n1)N1CCCCC1` [Example 36, (6-Phenylethynyl-[1,2,4]triazolo[1,5-a]pyrimidin-2-yl)-piperidin-1-yl-methanone] to `O=C(c1cc2ncc(C#Cc3ccccc3)cn2n1)N1CCCCCC1` [Example 17, Azepan-1-yl-(6-phenylethynyl-pyrazolo[1,5-a]pyrimidin-2-yl)-methanone], the EC50 falls from 940 nM to 260 nM (3.6-fold). The second is the more potent here.

First: C(#Cc1cnc2ncoc2c1)c1ccccc1 [Example 42, 6-Phenylethynyl-oxazolo[4,5-b]pyridine]
Second: Fc1ccc(C#Cc2cnc3ncoc3c2)cc1 [Example 70, 6-(4-Fluoro-phenylethynyl)-oxazolo[4,5-b]pyridine]
The EC50 of the first is 3-fold lower: 470 nM for the first, 1400 nM for the second. The first is the more potent here.

Going from `C(#Cc1cnc2ncoc2c1)C1=CCCCC1` [Example 71, 6-Cyclohex-1-enylethynyl-oxazolo[4,5-b]pyridine] to `C(#Cc1ccc2ccnn2c1)C1=CCCCC1` [Example 30, 6-Cyclohex-1-enylethynyl-pyrazolo[1,5-a]pyridine], the EC50 rises from 6.3 nM to 29 nM (4.6-fold). The first is the more potent here.

`Fc1cccc(F)c1C#Cc1cnc2nccnc2c1` [Example 107, 7-((2,6-Difluorophenyl)ethynyl)pyrido[2,3-b]pyrazine] and `Fc1ccc(C#Cc2cnc3nccnc3c2)c(F)c1` [Example 109, 7-((2,4-Difluorophenyl)ethynyl)pyrido[2,3-b]pyrazine] are within 1.5-fold of each other in EC50: 3700 nM for the first, 3500 nM for the second.

`Cc1ccc(C#Cc2cnc3cccnc3c2)c(F)c1` [Example 115, 3-((2-Fluoro-4-methylphenyl)ethynyl)-[1,5]naphthyridine] and `C(#Cc1cnc2cccnc2c1)c1cccnc1` [Example 101, 3-(Pyridin-3-ylethynyl)-1,5-naphthyridine] are within 1.5-fold of each other in EC50: 690 nM for the first, 470 nM for the second.

Going from `C(#Cc1ccc2nc(-c3ccco3)nn2c1)c1ccccc1` [Example 84, 2-Furan-2-yl-6-phenylethynyl-[1,2,4]triazolo[1,5-a]pyridine] to `C(#Cc1ccc2ccnn2c1)c1ccccc1` [Example 29, 6-Phenylethynyl-pyrazolo[1,5-a]pyridine], the EC50 falls from 410 nM to 78 nM (5.3-fold). The second is the more potent here.

First: Fc1ccc(-c2cc3ncc(C#Cc4ccccc4)cn3n2)cc1 [Example 28, 2-(4-Fluoro-phenyl)-6-phenylethynyl-pyrazolo[1,5-a]pyrimidine]
Second: O=C(c1cc2ncc(C#Cc3ccccc3)cn2n1)N1CCC(c2ccccc2)CC1 [Example 18, (6-Phenylethynyl-pyrazolo[1,5-a]pyrimidin-2-yl)-(4-phenyl-piperidin-1-yl)-methanone]
The EC50 of the first is 3.7-fold lower: 93 nM for the first, 340 nM for the second. The first is the more potent here.

First: Cn1cnc2cc(C#Cc3cccc(F)c3)cnc21 [Example 105, 6-(3-Fluoro-phenylethynyl)-3-methyl-3H-imidazo[4,5-b]pyridine]
Second: Cn1cnc2cc(C#Cc3ccc(F)cc3)cnc21 [Example 106, 6-(4-Fluoro-phenylethynyl)-3-methyl-3H-imidazo[4,5-b]pyridine]
The EC50 of the first is 2.7-fold lower: 21 nM for the first, 57 nM for the second.

Compared with `Fc1cc(F)cc(C#Cc2cnc3ccnn3c2)c1` [Example 11, 6-(3,5-Difluoro-phenylethynyl)-pyrazolo[1,5-a]pyrimidine], `Clc1cc(Cl)cc(C#Cc2cnc3ccnn3c2)c1` [Example 2, 6-(3,5-Dichloro-phenylethynyl)-pyrazolo[1,5-a]pyrimidine] is 2.6-fold higher in EC50: 200 nM for the first, 520 nM for the second. The first is the more potent here.

First: O=C(c1cc2ncc(C#Cc3ccccc3)cn2n1)N1CCCC1 [Example 19, (6-Phenylethynyl-pyrazolo[1,5-a]pyrimidin-2-yl)-pyrrolidin-1-yl-methanone]
Second: O=C(c1nc2ccc(C#Cc3cccc(F)c3)cn2n1)N1CCCCC1 [Example 57, [6-(3-Fluoro-phenylethynyl)-[1,2,4]triazolo[1,5-a]pyridin-2-yl]-piperidin-1-yl-methanone]
The EC50 of the first is 2-fold lower: 610 nM for the first, 1200 nM for the second. The first is the more potent here.

First: Fc1ccc(C#Cc2cnc3ncnn3c2)cc1 [Example 49, 6-(4-Fluoro-phenylethynyl)-[1,2,4]triazolo[1,5-a]pyrimidine]
Second: Fc1cccc(C#Cc2ccc3ncnn3c2)c1 [Example 53, 6-(3-Fluoro-phenylethynyl)-[1,2,4]triazolo[1,5-a]pyridine]
The EC50 of the first is 4.2-fold higher: 1800 nM for the first, 430 nM for the second. The second is the more potent here.

Going from `Cc1ccc(C#Cc2cnc3ccnn3c2)cc1` [Example 9, 6-p-Tolylethynyl-pyrazolo[1,5-a]pyrimidine] to `CC(C)(C)OC(=O)N1CC=C(C#Cc2cnc3ccnn3c2)CC1` [Example 12, 4-Pyrazolo[1,5-a]pyrimidin-6-ylethynyl-3,6-dihydro-2H-pyridine-1-carboxylic acid tert-butyl ester], the EC50 rises from 77 nM to 1300 nM (17-fold). The first is the more potent here.

First: COc1cnc2ncc(C#Cc3ccccc3)cc2n1 [Example 92, 2-Methoxy-7-(phenylethynyl)pyrido[2,3-b]pyrazine]
Second: Cc1ccccc1C#Cc1cnc2nccnc2c1 [Example 87, 7-(o-Tolylethynyl)-pyrido[2,3-b]pyrazine]
The EC50 of the first is 3.9-fold lower: 280 nM for the first, 1100 nM for the second. The first is the more potent here.

First: Clc1cccc(C#Cc2cnc3nccnc3c2)c1 [Example 111, 7-((3-Chlorophenyl)ethynyl)pyrido[2,3-b]pyrazine]
Second: Fc1cc(F)cc(C#Cc2cnc3nccnc3c2)c1 [Example 108, 7-((3,5-Difluorophenyl)ethynyl)pyrido[2,3-b]pyrazine]
The EC50 of the first is 34-fold lower: 120 nM for the first, 4100 nM for the second.

Going from `O=C(c1nc2ccc(C#Cc3ccc(F)cc3)cn2n1)N1CCCCC1` [Example 59, [6-(4-Fluoro-phenylethynyl)-[1,2,4]triazolo[1,5-a]pyridin-2-yl]-piperidin-1-yl-methanone] to `Fc1cccc(F)c1C#Cc1cnc2ncsc2c1` [Example 78, 6-((2,6-Difluorophenyl)ethynyl)thiazolo[4,5-b]pyridine], the EC50 falls from 6900 nM to 1700 nM (4.1-fold).

biological target: T2, mGluR5 receptors (Rattus norvegicus, UniProt P31424); experiment: Cytosolic calcium studies with cultured rat astrocytes; type: cell-based
T2 construct: Primary astrocyte cultures are prepared from cortices of newborn rats; endogenous in cells; host or cells: primary rat cortical astrocytes (Sprague-Dawley pups)
Experimental: Primary astrocyte cultures are prepared from cortices of newborn rats as described by Booher and Sensenbrenner (1972, Neurobiology 2(3):97-105). Briefly, Sprague-Dawley rat pups (2-4 d old) are decapitated and neocortices are dissected, disintegrated with a nylon filter (pore size 80 μm) and carefully triturated. The cell suspension is plated on poly-D-lysine pre-coated flasks (Costar, Netherlands) and cultivated in Dulbecco's Modified Eagle's Medium (DMEM, Invitrogen, Germany) supplemented with 10% foetal calf serum (FCS, Sigma, Germany), 4 mM glutamine and […] gentamycin (both Biochrom, Germany) at 37° C. in a humidified atmosphere of 5% CO2/95% air for 7 days with exchanging the medium at day 2 and 6.
After 7 days in vitro (DIV), cells are shaken overnight at 250 rpm to remove oligodendrocytes and microglia. The next day, astrocytes are rinsed twice with CMF-PBS (calcium- and magnesium-free phosphate buffered saline, Biochrom, Germany), trypsinized and subplated on poly-D-lysine pre-coated 96-well plates (Greiner, Germany) at a density of 40,000 cells/well. 24 h after establishing the secondary culture the astrocytes are rinsed with PBS″ (phosphate buffered saline, Biochrom, Germany) and fed with astrocyte-defined medium (ADM) consisting of DMEM containing 1× G5-supplement (Invitrogen, Germany), 0.5 μg/ml heparan sulfate, and 1.5 μg/ml fibronectin (both Sigma, Germany) (Miller et al., (1993) Brain Res. 618(1):175-8). 3 days later the medium is exchanged and the cells incubated for another 2-3 days, so that at the time of experiments astrocytes are 14-15 DIV.
The increase of cytosolic calcium after stimulation with the mGluR5 agonist L-quisqualate is measured using a fluorometric imaging plate reader (FLIPR) and the Ca-Kit (both Molecular Devices). Prior to addition of agonist or antagonist the medium is aspirated and cells are loaded for 2 h at RT with 150 μl of loading buffer consisting of Ca-sensitive dye reconstituted in sodium chloride (123 mM), potassium chloride (5.4 mM), magnesium chloride (0.8 mM), calcium chloride (1.8 mM), D-glucose (15 mM), and HEPES (20 mM), pH 7.3. Subsequently, plates are transferred to FLIPR to detect calcium increase with the addition of L-quisqualate (100 nM) measured as relative fluorescence units (RFU). If antagonists are tested, these compounds are pre-incubated for 10 minutes at RT before addition of the respective agonist.
Thereafter, concentration-response curves for the positive modulator are performed in the presence of a fixed concentration of quisqualate showing the biggest window for potentiation (normally 10-30 nM).
as §1, §2

T2 sequence (P31424 21-1203): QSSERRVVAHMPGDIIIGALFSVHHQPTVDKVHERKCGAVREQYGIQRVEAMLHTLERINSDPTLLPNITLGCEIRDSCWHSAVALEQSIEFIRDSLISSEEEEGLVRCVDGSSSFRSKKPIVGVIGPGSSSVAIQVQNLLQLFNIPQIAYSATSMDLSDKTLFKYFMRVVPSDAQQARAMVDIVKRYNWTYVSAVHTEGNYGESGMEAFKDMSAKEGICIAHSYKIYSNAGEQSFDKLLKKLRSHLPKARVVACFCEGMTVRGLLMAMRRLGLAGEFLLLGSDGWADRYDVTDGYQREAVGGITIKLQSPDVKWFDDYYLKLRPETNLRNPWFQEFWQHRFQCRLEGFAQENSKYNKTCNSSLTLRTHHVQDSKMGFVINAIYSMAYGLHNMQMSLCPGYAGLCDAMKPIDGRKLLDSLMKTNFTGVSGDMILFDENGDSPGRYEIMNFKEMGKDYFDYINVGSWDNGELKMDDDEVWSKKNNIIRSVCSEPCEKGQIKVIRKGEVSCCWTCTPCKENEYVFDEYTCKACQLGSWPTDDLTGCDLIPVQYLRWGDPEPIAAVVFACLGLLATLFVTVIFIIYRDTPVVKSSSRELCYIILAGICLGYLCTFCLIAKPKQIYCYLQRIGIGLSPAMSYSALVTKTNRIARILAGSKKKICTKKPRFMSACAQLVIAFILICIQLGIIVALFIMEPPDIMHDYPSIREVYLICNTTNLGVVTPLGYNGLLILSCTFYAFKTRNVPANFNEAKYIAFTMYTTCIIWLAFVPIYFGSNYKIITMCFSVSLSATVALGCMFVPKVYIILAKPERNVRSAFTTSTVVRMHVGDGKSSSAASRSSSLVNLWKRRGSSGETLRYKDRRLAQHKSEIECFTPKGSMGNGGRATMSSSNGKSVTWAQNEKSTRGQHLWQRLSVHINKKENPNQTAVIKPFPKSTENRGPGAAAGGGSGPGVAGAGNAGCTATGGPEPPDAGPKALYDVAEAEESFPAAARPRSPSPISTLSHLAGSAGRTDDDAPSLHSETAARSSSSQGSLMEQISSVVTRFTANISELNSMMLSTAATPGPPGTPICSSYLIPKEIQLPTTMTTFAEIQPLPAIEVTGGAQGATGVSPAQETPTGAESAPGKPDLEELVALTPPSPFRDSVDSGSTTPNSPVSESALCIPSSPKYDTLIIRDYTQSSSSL

`Fc1ccccc1C#Cc1cnc2ncsc2c1` [Example 45, 6-(2-Fluoro-phenylethynyl)-thiazolo[4,5-b]pyridine] and `C(#Cc1cnc2ncsc2c1)c1ccccc1` [Example 38, 6-Phenylethynyl-thiazolo[4,5-b]pyridine] are within 1.5-fold of each other in EC50: 56 nM for the first, 73 nM for the second.

Compared with `C(#Cc1cnc2cccnc2c1)c1ccccc1` [Example 41, 3-Phenylethynyl-[1,5]naphthyridine], `C(#Cc1cnc2ccnn2c1)c1ccccc1` [Example 1, 6-Phenylethynyl-pyrazolo[1,5-a]pyrimidine] is 18-fold higher in EC50: 5 nM for the first, 89 nM for the second. The first is the more potent here.

First: C(#Cc1cnc2ncnn2c1)c1ccccc1 [Example 33, 6-Phenylethynyl-[1,2,4]triazolo[1,5-a]pyrimidine]
Second: Oc1ccc(C#Cc2cnc3nccnc3c2)cc1 [Example 90, 4-(Pyrido[2,3-b]pyrazin-7-ylethynyl)phenol]
The EC50 of the first is 4.3-fold lower: 230 nM for the first, 1000 nM for the second.

`O=C(c1nc2ccc(C#Cc3ccccc3F)cn2n1)N1CCCCC1` [Example 58, [6-(2-Fluoro-phenylethynyl)-[1,2,4]triazolo[1,5-a]pyridin-2-yl]-piperidin-1-yl-methanone] was tested, and the EC50 was 1100 nM.
